Results: patent US10273210B2, “Pyridine compound” (Sumitomo Chemical Company, Limited, priority 2015, dated 2019)

How the values were obtained:
[1] = tested on: cotton aphid (Aphis gossypii); experiment: Test Example 1: foliar spray on cucumber seedlings infested with cotton aphid, controlling value; format: in vivo; settings: 120 h, spray 10 mL/seedling on cucumber, 5 days after spraying, 25° C.
From the text: Controlling value (%)={1−(Cb×Tai)/(Cai×Tb)}×100 wherein the symbols in the formula represent the following meanings. Cb: Number of the test insects in untreated group; Cai: Number of the surviving insects at the time of the investigation in untreated group; Tb: Number of the test insects in treated group; Tai: Number of the surviving insects at the time of the investigation in treated group; Here the “untreated group” represents a group where a similar treatment procedure to that of the treated group except not using each test compound is done.

[2] = tested on: housefly (Musca domestica); experiment: whole plant or invertebrate; format: in vivo; settings: 24 h, read-out: mortality of insects
Method: A bottom of a plastic cup having a diameter of 5.5 cm is lined with the same size of a filter paper, and each of the diluted solutions (0.7 mL) is added dropwise on the filter paper, and sucrose (30 mg) is homogeneously placed into the plastic cup as a bait.

Compound	pest or weed control at 500 ppm [1] [%]	pest or weed control at 200 ppm [1] [%]	mortality at 500 ppm [2] [%]
CCS(=O)(=O)c1cc(N)ccc1-c1ccc(OCC(F)(F)C(F)(F)F)cn1 [Present compound 53]	≥ 90	–	–
CCSc1cc(C#N)ccc1-c1ccc(OCC(F)(F)C(F)(F)F)cn1 [Present compound 59]	≥ 90	≥ 90	–
CCS(=O)(=O)c1cc(C#N)ccc1-c1ccc(OCC(F)(F)C(F)(F)F)cn1 [Present compound 60]	≥ 90	≥ 90	–
CCS(=O)(=O)c1cc(C(=O)O)ccc1-c1ccc(OCC(F)(F)C(F)(F)F)cn1 [Present compound 61]	≥ 90	≥ 90	–
CCS(=O)(=O)c1ccc(N)cc1-c1ccc(OCC(F)(F)C(F)(F)F)cn1 [Present compound 62]	≥ 90	≥ 90	–
CCS(=O)(=O)c1cc(NC(=O)C2CC2)ccc1-c1ccc(OCC(F)(F)C(F)(F)F)cn1 [Present compound 63]	≥ 90	–	–
CCS(=O)(=O)c1cc(-n2cncn2)ccc1-c1ccc(OCC(F)(F)C(F)(F)F)cn1 [Present compound 67]	≥ 90	≥ 90	≥ 100
CCS(=O)(=O)c1cc(-c2ccccn2)ccc1-c1ccc(OCC(F)(F)C(F)(F)F)cn1 [Present compound 68]	≥ 90	≥ 90	–
